Test results from ChEMBL document CHEMBL3751695, “Cationic lipid-conjugated hydrocortisone as selective antitumor agent” (Eur J Med Chem, 2016).
Calls of active or inactive are those of the source. No cut-off for these calls is given here.

Columns and labels:
B16-F10 [1] = assay: Induction of apoptosis in mouse B16F10 cells assessed as increase in cleaved caspase 3 level at 10 uM after 36 hrs by western blot analysis; type: functional, cell-based
B16-F10 [2] = assay: Inhibition of cell migration in mouse B16F10 cells at 20 uM after 36 hrs by wound healing assay; type: functional, cell-based
B16-F10 [3] = assay: Induction of apoptosis in mouse B16F10 cells assessed as early apoptotic cells at 20 uM after 24 hrs by annexin-V-FITC/propidium iodide staining based flow cytometry (reference value: 0.46 %); type: functional
[4] = Induction of apoptosis in mouse NIH/3T3 cells assessed as viable cells at 20 uM after 24 hrs by annexin-V-FITC/propidium iodide staining based flow cytometry (reference value: 99.06 %); type: cell-based, NIH3T3; details: read-out: Activity
B16-F10 [5] = assay: Antitumor activity in mouse B16F10 cells xenografted in C57BL/J mouse assessed as decrease in VEGFR2 expression in tumor at 10 mg/kg, ip by immunohistochemical analysis; type: functional, organism-based
B16-F10 [6] = assay: Induction of apoptosis in mouse B16F10 cells assessed as increased Bax expression at 20 uM after 36 hrs by western blot analysis; type: functional, cell-based
A549 [7] = assay: Induction of apoptosis in human A549 cells assessed as early apoptotic cells at 20 uM after 24 hrs by annexin-V-FITC/propidium iodide staining based flow cytometry (reference value: 1.41 %); type: functional
MDA-MB-231 [8] = assay: Induction of apoptosis in human MDA-MB-231 cells assessed as necrotic cells at 20 uM after 24 hrs by annexin-V-FITC/propidium iodide staining based flow cytometry (reference value: 5.40 %); type: functional
RAW264.7 [9] = assay: Induction of apoptosis in mouse RAW264.7 cells assessed as late apoptotic cells at 20 uM after 24 hrs by annexin-V-FITC/propidium iodide staining based flow cytometry (reference value: 5.64 %); type: cell-based; details: raw264.7, 24 h
RAW264.7 [10] = assay: Cytotoxicity against mouse RAW264.7 cells after 72 hrs by MTT assay; type: cell-based; details: RAW264.7, 72 h
B16-F10 [11] = assay: Antitumor activity in mouse B16F10 cells xenografted in C57BL/J mouse assessed as increase of apoptotic protein cleaved caspase 9 level in tumor lysates at 10 mg/kg, ip by western blot analysis; type: functional, organism-based; details: Neoplasm, Lysate
[12] = Cell cycle arrest in mouse B16F10 cells assessed as accumulation at subG0/G1 phase at 20 uM after 24 hrs by propidium iodide staining based flow cytometry (reference value: 40.7 %); type: functional; details: B16-F10
MDA-MB-231 [13] = assay: Induction of apoptosis in human MDA-MB-231 cells assessed as late apoptotic cells at 20 uM after 24 hrs by annexin-V-FITC/propidium iodide staining based flow cytometry (reference value: 3.25 %); type: functional
B16-F10 [14] = assay: Induction of apoptosis in mouse B16F10 cells assessed as increase in cytochrome C level at 10 uM after 36 hrs by western blot analysis; type: functional, cell-based
[15] = Cytotoxicity against mouse NIH/3T3 cells after 72 hrs by MTT assay; type: cell-based; details: NIH3T3, 72 h
B16-F10 [16] = assay: Induction of apoptosis in mouse B16F10 cells assessed as increase in ratio of Bax/Bcl2 level at 20 uM after 36 hrs by western blot analysis (reference value: 0.2); type: functional
A549 [17] = assay: Induction of apoptosis in human A549 cells assessed as necrotic cells at 20 uM after 24 hrs by annexin-V-FITC/propidium iodide staining based flow cytometry (reference value: 3.23 %); type: functional
B16-F10 [18] = assay: Induction of apoptosis in mouse B16F10 cells assessed as increase in cytochrome C level at 20 uM after 36 hrs by western blot analysis; type: functional, cell-based
[19] = Cell cycle arrest in mouse B16F10 cells assessed as increase in cyclin B1 level at 20 uM by flow cytometric analysis; type: functional, cell-based; details: B16-F10
B16-F10 [20] = assay: Antitumor activity against mouse B16F10 cells xenografted in C57BL/J mouse assessed as inhibition of tumor growth at 10 mg/kg, ip; type: functional, organism-based
Gallus gallus = species on record: Gallus gallus; assay: Antiangiogenic activity in chicken embryo assessed as inhibition of neovascularization at 40 uM after 4 hrs by microscopic analysis; type: functional, tissue-based

## CCCCCCCCCCCCCCCC[N+](C)(CCCCCCCCCCCCCCCC)CCNC(=O)[C@@]1(O)CC[C@H]2[C@@H]3CCC4=CC(=O)CC[C@]4(C)[C@H]3[C@@H](O)C[C@@]21C.[Cl-]
B16-F10 [1]
  Activity: Active
B16-F10 [2]
  inhibition: Active
B16-F10 [3]
  Activity: 1.67%
[4]
  viability at 24 h, 20 µM: 90.4%
B16-F10 [5]
  inhibition: Active
B16-F10 [6]
  Activity: Active
A549 [7]
  Activity: 7.53%
MDA-MB-231 [8]
  Activity: 4.45%
RAW264.7 [9]
  Activity: 2.83%
RAW264.7 [10]
  IC50: 18.4 µM
B16-F10 [11]
  Activity: Active
[12]
  Activity: 15.1%
MDA-MB-231 [13]
  Activity: 40.23%
B16-F10 [14]
  Activity: Active
[15]
  IC50: 20 µM
B16-F10 [16]
  Ratio: 0.6
A549 [17]
  Activity: 1.36%
B16-F10 [18]
  Activity: Active
[19]
  Activity: Active
B16-F10 [20]
  inhibition: Active
Gallus gallus
  inhibition: Active
